Source: patent publication US4567143A, “Process for preparing 4'-deschlororebeccamycin” (Bristol-Myers Company, priority 1985, dated 1986)
≈ marks a conversion by molar mass, not a printed value.

Experiments:
P-388 leukemia = assay: Effect on transplanted mouse leukemia P-388; assay type: in vivo, mouse (CDF1 F mice); conditions: IP, single injection day 1; for MST % T/C: >125 considered significant tumor inhibition; for Average weight change, day 5: control 0.6; for MST (median survival time): control 11.0
Description: 4'-Deschlororebeccamycin was also tested against the transplanted mouse leukemia P-388 and the results are shown below in Table 6. The methodology used generally followed the protocols of the National Cancer Institute [Cancer Chemotherapy Rep. Part 3, 3, 1-103 (1972)]. The essential experimental details are given at the bottom of Table 6.
Tumor inoculum: 10^6 ascites cells, ip
Treatment: Single injection on day 1 given i.p.
Evaluation: MST = median survival time
Effect: % T/C = (MST treated/MST control) × 100
Criteria: % T/C >125 considered significant tumor inhibition
Control: Saline (0.5 ml) given once daily i.p. for 5 days

S. coli A15119 = assay: Antibacterial activity, serial two-fold agar dilution; assay type: cell-based; conditions: read-out: Minimum Inhibitory Concentration (MIC)
Description: (§1) The antibacterial activity of 4'-deschlororebeccamycin was determined against a number of gram-positive and gram-negative organisms by the serial two-fold agar dilution method. The results are shown in Table 5 below in comparison with the activity of rebeccamycin.

P. vulgaris A21559 = assay: as above; assay type: cell-based; conditions: Proteus vulgaris, read-out: Minimum Inhibitory Concentration (MIC)
Description: as §1

K. pneumoniae A9664 = assay: as above; assay type: cell-based; conditions: Klebsiella pneumoniae, read-out: Minimum Inhibitory Concentration (MIC)
Description: as §1

K. pneumoniae A20468 = assay: as above; assay type: cell-based; conditions: Klebsiella pneumoniae, read-out: Minimum Inhibitory Concentration (MIC)
Description: as §1

S. marcescens A20019 = assay: as above; assay type: cell-based; conditions: Serratia marcescens, read-out: Minimum Inhibitory Concentration (MIC)
Description: as §1

P. aeruginosa A21213 = assay: as above; assay type: cell-based; conditions: Pseudomonas aeruginosa, read-out: Minimum Inhibitory Concentration (MIC)
Description: as §1

S. coli A20341-1 = assay: as above; assay type: cell-based; conditions: read-out: Minimum Inhibitory Concentration (MIC)
Description: as §1

P. mirabilis A9900 = assay: as above; assay type: cell-based; conditions: Proteus mirabilis, read-out: Minimum Inhibitory Concentration (MIC)
Description: as §1

E. cloacae A9656 = assay: as above; assay type: cell-based; conditions: Enterobacter cloacae, read-out: Minimum Inhibitory Concentration (MIC)
Description: as §1

[1] = tested on: List. monocytogenes A20025; assay: as above; assay type: cell-based; conditions: Listeria monocytogenes, read-out: Minimum Inhibitory Concentration (MIC)
Description: as §1

S. aureus A9537 = assay: as above; assay type: cell-based; conditions: Staphylococcus aureus, read-out: Minimum Inhibitory Concentration (MIC)
Description: as §1

P. rettgeri A22424 = assay: as above; assay type: cell-based; conditions: Providencia rettgeri, read-out: Minimum Inhibitory Concentration (MIC)
Description: as §1

S. faecalis A20688 = assay: as above; assay type: cell-based; conditions: Enterococcus faecalis, read-out: Minimum Inhibitory Concentration (MIC)
Description: as §1

S. pyogenes A9604 = assay: as above; assay type: cell-based; conditions: Streptococcus pyogenes, read-out: Minimum Inhibitory Concentration (MIC)
Description: as §1

[2] = tested on: S. aureus (Pen-Res) A9606; assay: as above; assay type: cell-based; conditions: Staphylococcus aureus, read-out: Minimum Inhibitory Concentration (MIC)
Description: as §1

M. morganii A15153 = assay: as above; assay type: cell-based; conditions: Morganella morganii, read-out: Minimum Inhibitory Concentration (MIC)
Description: as §1

[3] = tested on: List. monocytogenes A15121; assay: as above; assay type: cell-based; conditions: Listeria monocytogenes, read-out: Minimum Inhibitory Concentration (MIC)
Description: as §1

M. luteus A9547 = assay: as above; assay type: cell-based; conditions: Micrococcus luteus, read-out: Minimum Inhibitory Concentration (MIC)
Description: as §1

S. pneumoniae A9585 = assay: as above; assay type: cell-based; conditions: Streptococcus pneumoniae, read-out: Minimum Inhibitory Concentration (MIC)
Description: as §1

E. cloacae A9659 = assay: as above; assay type: cell-based; conditions: Enterobacter cloacae, read-out: Minimum Inhibitory Concentration (MIC)
Description: as §1

P. aeruginosa A9843A = assay: as above; assay type: cell-based; conditions: Pseudomonas aeruginosa, read-out: Minimum Inhibitory Concentration (MIC)
Description: as §1

Solubility = assay type: physicochemical
[4] = tested on: gram-positive and gram-negative organisms; assay: Antimicrobial activity (general statement); assay type: cell-based
Description: as §1

## COC1C(CO)OC(n2c3c(Cl)cccc3c3c4c(c5c6ccccc6[nH]c5c32)C(=O)NC4=O)C(O)C1O (stereo not drawn) [4'-Deschlororebeccamycin]
P-388 leukemia; 16 mg/kg/inj
  MST % T/C: 164%
  Average weight change, day 5: -0.9 gm
  MST (median survival time): 18.0 days
P-388 leukemia; 32 mg/kg/inj
  MST % T/C: 141%
  Average weight change, day 5: -0.8 gm
  MST (median survival time): 15.5 days
P-388 leukemia; 64 mg/kg/inj
  MST % T/C: 136%
  Average weight change, day 5: -0.8 gm
  MST (median survival time): 15.0 days
P-388 leukemia; 128 mg/kg/inj
  MST % T/C: 159%
  Average weight change, day 5: -0.6 gm
  MST (median survival time): 17.5 days
P-388 leukemia; 256 mg/kg/inj
  MST % T/C: 136%
  Average weight change, day 5: -1.5 gm
  MST (median survival time): 15.0 days
P-388 leukemia; 512 mg/kg/inj
  MST % T/C: 141%
  Average weight change, day 5: -1.0 gm
  MST (median survival time): 15.5 days
S. coli A15119
  MIC: > 250 µg/mL
P. vulgaris A21559
  MIC: > 250 µg/mL
K. pneumoniae A9664
  MIC: > 250 µg/mL
K. pneumoniae A20468
  MIC: > 250 µg/mL
S. marcescens A20019
  MIC: > 250 µg/mL
P. aeruginosa A21213
  MIC: > 250 µg/mL
S. coli A20341-1
  MIC: > 250 µg/mL
P. mirabilis A9900
  MIC: > 250 µg/mL
E. cloacae A9656
  MIC: > 250 µg/mL
[1]
  MIC: 63 µg/mL (≈ 118 µM)
S. aureus A9537
  MIC: 2 µg/mL (≈ 3.73 µM)
P. rettgeri A22424
  MIC: > 250 µg/mL
S. faecalis A20688
  MIC: 16 µg/mL (≈ 29.9 µM)
S. pyogenes A9604
  MIC: 32 µg/mL (≈ 59.7 µM)
[2]
  MIC: > 250 µg/mL
M. morganii A15153
  MIC: > 250 µg/mL
[3]
  MIC: 32 µg/mL (≈ 59.7 µM)
M. luteus A9547
  MIC: 1 µg/mL (≈ 1.87 µM)
S. pneumoniae A9585
  MIC: 32 µg/mL (≈ 59.7 µM)
E. cloacae A9659
  MIC: > 250 µg/mL
P. aeruginosa A9843A
  MIC: > 250 µg/mL
Solubility; dimethylsulfoxide
  solubility in dimethylsulfoxide: soluble
Solubility; water
  solubility in water: insoluble
[4]
  antimicrobial activity: exhibits antimicrobial activity

## CO[C@H]1[C@H](O)[C@@H](O)[C@H](n2c3c(Cl)cccc3c3c4c(c5c6cccc(Cl)c6[nH]c5c32)C(=O)NC4=O)O[C@@H]1CO [Rebeccamycin]
P-388 leukemia; 16 mg/kg/inj
  MST % T/C: 136%
  Average weight change, day 5: -0.8 gm
  MST (median survival time): 15.0 days
P-388 leukemia; 32 mg/kg/inj
  MST % T/C: 118%
  Average weight change, day 5: -0.6 gm
  MST (median survival time): 13.0 days
P-388 leukemia; 64 mg/kg/inj
  MST % T/C: 136%
  Average weight change, day 5: 0.3 gm
  MST (median survival time): 15.0 days
P-388 leukemia; 128 mg/kg/inj
  MST % T/C: 132%
  Average weight change, day 5: 0.2 gm
  MST (median survival time): 14.5 days
P-388 leukemia; 256 mg/kg/inj
  MST % T/C: 136%
  Average weight change, day 5: -0.3 gm
  MST (median survival time): 15.0 days
P-388 leukemia; 512 mg/kg/inj
  MST % T/C: 155%
  Average weight change, day 5: -1.4 gm
  MST (median survival time): 17.0 days
S. coli A15119
  MIC: > 250 µg/mL
P. vulgaris A21559
  MIC: > 250 µg/mL
K. pneumoniae A9664
  MIC: > 250 µg/mL
K. pneumoniae A20468
  MIC: > 250 µg/mL
S. marcescens A20019
  MIC: > 250 µg/mL
P. aeruginosa A21213
  MIC: > 250 µg/mL
S. coli A20341-1
  MIC: > 250 µg/mL
P. mirabilis A9900
  MIC: > 250 µg/mL
E. cloacae A9656
  MIC: > 250 µg/mL
[1]
  MIC: 32 µg/mL (≈ 56.1 µM)
S. aureus A9537
  MIC: 0.5 µg/mL (≈ 0.877 µM)
P. rettgeri A22424
  MIC: > 250 µg/mL
S. faecalis A20688
  MIC: 8 µg/mL (≈ 14 µM)
S. pyogenes A9604
  MIC: > 125 µg/mL
[2]
  MIC: > 250 µg/mL
M. morganii A15153
  MIC: > 250 µg/mL
[3]
  MIC: 32 µg/mL (≈ 56.1 µM)
M. luteus A9547
  MIC: 0.5 µg/mL (≈ 0.877 µM)
S. pneumoniae A9585
  MIC: > 125 µg/mL
E. cloacae A9659
  MIC: > 250 µg/mL
P. aeruginosa A9843A
  MIC: > 250 µg/mL
